In ChEMBL document CHEMBL4507260 (2021):

Legend:
Conditions in all cases: Compound concentration 1000.0 nM
[1] = molecular target: Serine/threonine-protein kinase DCLK2 (Homo sapiens) (UniProt Q8N568)
[2] = molecular target: MAP/microtubule affinity-regulating kinase 4 (Homo sapiens) (UniProt Q96L34)
[3] = molecular target: Tyrosine-protein kinase Tec (Homo sapiens) (UniProt P42680)
[4] = molecular target: Proto-oncogene tyrosine-protein kinase receptor Ret (Homo sapiens) (UniProt P07949)
[5] = molecular target: Serine/threonine-protein kinase VRK2 (Homo sapiens) (UniProt Q86Y07)
[6] = tested on: Tyrosine-protein kinase ABL1 (Homo sapiens), P00519 [F317L]
[7] = molecular target: Serine/threonine-protein kinase NIM1 (Homo sapiens) (UniProt Q8IY84)
[8] = molecular target: Aurora kinase B (Homo sapiens) (UniProt Q96GD4)
[9] = molecular target: Angiopoietin-1 receptor (Homo sapiens) (UniProt Q02763)
[10] = molecular target: Mitogen-activated protein kinase kinase kinase 20 (Homo sapiens) (UniProt Q9NYL2)
[11] = molecular target: Tyrosine-protein kinase Srms (Homo sapiens) (UniProt Q9H3Y6)
[12] = molecular target: Dual specificity mitogen-activated protein kinase kinase 1 (Homo sapiens) (UniProt Q02750)
[13] = tested on: eIF-2-alpha kinase GCN2 (Homo sapiens), Q9P2K8 [S808G]
[14] = molecular target: Serine/threonine-protein kinase ULK1 (Homo sapiens) (UniProt O75385)
[15] = tested on: Phosphatidylinositol 4,5-bisphosphate 3-kinase catalytic subunit alpha isoform (Homo sapiens), P42336 [E542K]
[16] = molecular target: Atypical kinase COQ8B, mitochondrial (Homo sapiens) (UniProt Q96D53)
[17] = tested on: Tyrosine-protein kinase ABL1 (Homo sapiens), P00519 [H396P]
[18] = molecular target: Serine/threonine-protein kinase 36 (Homo sapiens) (UniProt Q9NRP7)
[19] = molecular target: BMP-2-inducible protein kinase (Homo sapiens) (UniProt Q9NSY1)
[20] = tested on: Receptor-type tyrosine-protein kinase FLT3 (Homo sapiens), P36888 [UNDEFINED MUTATION]
[21] = molecular target: Proto-oncogene tyrosine-protein kinase Src (Homo sapiens) (UniProt P12931)
[22] = molecular target: STE20/SPS1-related proline-alanine-rich protein kinase (Homo sapiens) (UniProt Q9UEW8)
[23] = tested on: Phosphatidylinositol 4,5-bisphosphate 3-kinase catalytic subunit alpha isoform (Homo sapiens), P42336 [H1047L]
[24] = molecular target: Serine/threonine-protein kinase 35 (Homo sapiens) (UniProt Q8TDR2)
[25] = molecular target: Serine/threonine-protein kinase 3 (Homo sapiens) (UniProt Q13188)
[26] = molecular target: Ribosomal protein S6 kinase alpha-4 (Homo sapiens) (UniProt O75676)
[27] = tested on: Epidermal growth factor receptor (Homo sapiens), P00533 [UNDEFINED MUTATION]
[28] = tested on: Proto-oncogene tyrosine-protein kinase receptor Ret (Homo sapiens), P07949 [M918T]
[29] = molecular target: Cyclin-dependent kinase 9 (Homo sapiens) (UniProt P50750)
[30] = molecular target: Calcium/calmodulin-dependent protein kinase kinase 1 (Homo sapiens) (UniProt Q8N5S9)
[31] = molecular target: Calcium/calmodulin-dependent protein kinase type II subunit alpha (Homo sapiens) (UniProt Q9UQM7)
[32] = tested on: Serine/threonine-protein kinase B-raf (Homo sapiens), P15056 [V600E]
[33] = molecular target: Aurora kinase C (Homo sapiens) (UniProt Q9UQB9)
[34] = molecular target: Citron Rho-interacting kinase (Homo sapiens) (UniProt O14578)
[35] = molecular target: Ribosomal protein S6 kinase alpha-3 (Homo sapiens) (UniProt P51812)
[36] = tested on: Epidermal growth factor receptor (Homo sapiens), P00533 [T790M]
[37] = molecular target: Myosin-IIIb (Homo sapiens) (UniProt Q8WXR4)
[38] = molecular target: Mitogen-activated protein kinase kinase kinase kinase 3 (Homo sapiens) (UniProt Q8IVH8)
[39] = molecular target: Mitogen-activated protein kinase kinase kinase 2 (Homo sapiens) (UniProt Q9Y2U5)
[40] = molecular target: Serine/threonine-protein kinase Nek4 (Homo sapiens) (UniProt P51957)
[41] = molecular target: Cyclin-dependent kinase 18 (Homo sapiens) (UniProt Q07002)
[42] = tested on: Receptor-type tyrosine-protein kinase FLT3 (Homo sapiens), P36888 [D835V]
[43] = molecular target: BDNF/NT-3 growth factors receptor (Homo sapiens) (UniProt Q16620)
[44] = tested on: Mast/stem cell growth factor receptor Kit (Homo sapiens), P10721 [A829P]
[45] = molecular target: Serine/threonine-protein kinase 4 (Homo sapiens) (UniProt Q13043)

Chain of eIF-2-alpha kinase GCN2 (Homo sapiens), Q9P2K8 [S808G] (Q9P2K8 whole entry S808G): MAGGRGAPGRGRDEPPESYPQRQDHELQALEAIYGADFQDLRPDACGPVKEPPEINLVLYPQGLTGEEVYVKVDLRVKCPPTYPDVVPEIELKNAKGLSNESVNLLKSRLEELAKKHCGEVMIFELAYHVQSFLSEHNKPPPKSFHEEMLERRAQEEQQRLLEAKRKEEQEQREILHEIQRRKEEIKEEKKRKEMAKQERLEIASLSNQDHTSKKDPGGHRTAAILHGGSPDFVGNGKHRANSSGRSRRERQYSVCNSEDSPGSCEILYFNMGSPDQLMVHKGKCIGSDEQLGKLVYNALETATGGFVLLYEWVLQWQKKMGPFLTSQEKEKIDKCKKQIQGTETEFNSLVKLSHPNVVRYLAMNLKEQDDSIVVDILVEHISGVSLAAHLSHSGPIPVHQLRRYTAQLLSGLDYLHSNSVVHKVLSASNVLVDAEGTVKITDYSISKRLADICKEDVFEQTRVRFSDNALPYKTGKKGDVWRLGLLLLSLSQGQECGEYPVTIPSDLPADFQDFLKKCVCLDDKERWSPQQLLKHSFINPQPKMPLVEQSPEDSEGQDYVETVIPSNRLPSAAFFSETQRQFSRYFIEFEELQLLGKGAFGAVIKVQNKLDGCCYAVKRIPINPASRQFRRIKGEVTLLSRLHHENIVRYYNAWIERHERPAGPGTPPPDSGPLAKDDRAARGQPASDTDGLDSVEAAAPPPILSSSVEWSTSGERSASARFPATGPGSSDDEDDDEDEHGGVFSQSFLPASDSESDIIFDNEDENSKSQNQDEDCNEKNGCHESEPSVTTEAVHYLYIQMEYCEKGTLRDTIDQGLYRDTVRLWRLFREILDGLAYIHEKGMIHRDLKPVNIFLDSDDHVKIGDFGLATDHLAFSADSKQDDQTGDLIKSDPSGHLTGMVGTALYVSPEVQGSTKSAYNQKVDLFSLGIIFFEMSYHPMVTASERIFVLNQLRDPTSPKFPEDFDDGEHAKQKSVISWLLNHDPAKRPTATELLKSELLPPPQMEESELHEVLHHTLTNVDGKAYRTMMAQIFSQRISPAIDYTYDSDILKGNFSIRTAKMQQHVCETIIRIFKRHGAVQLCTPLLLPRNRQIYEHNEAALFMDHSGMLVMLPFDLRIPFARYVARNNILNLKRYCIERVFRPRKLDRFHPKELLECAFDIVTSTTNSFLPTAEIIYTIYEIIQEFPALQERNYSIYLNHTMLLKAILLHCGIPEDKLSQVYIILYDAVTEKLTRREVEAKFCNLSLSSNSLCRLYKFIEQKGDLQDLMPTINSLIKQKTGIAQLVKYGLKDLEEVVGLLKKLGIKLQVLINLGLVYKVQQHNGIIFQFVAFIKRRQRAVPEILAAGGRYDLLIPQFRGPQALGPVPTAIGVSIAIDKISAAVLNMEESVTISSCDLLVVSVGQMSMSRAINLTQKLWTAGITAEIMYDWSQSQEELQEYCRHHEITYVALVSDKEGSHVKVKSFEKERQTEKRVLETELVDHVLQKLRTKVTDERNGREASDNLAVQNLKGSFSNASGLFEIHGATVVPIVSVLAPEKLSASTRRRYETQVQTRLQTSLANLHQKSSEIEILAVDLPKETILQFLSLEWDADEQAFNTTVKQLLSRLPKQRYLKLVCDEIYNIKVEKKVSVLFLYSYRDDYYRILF
Chain of Mast/stem cell growth factor receptor Kit (Homo sapiens), P10721 [A829P] (P10721 whole entry A829P): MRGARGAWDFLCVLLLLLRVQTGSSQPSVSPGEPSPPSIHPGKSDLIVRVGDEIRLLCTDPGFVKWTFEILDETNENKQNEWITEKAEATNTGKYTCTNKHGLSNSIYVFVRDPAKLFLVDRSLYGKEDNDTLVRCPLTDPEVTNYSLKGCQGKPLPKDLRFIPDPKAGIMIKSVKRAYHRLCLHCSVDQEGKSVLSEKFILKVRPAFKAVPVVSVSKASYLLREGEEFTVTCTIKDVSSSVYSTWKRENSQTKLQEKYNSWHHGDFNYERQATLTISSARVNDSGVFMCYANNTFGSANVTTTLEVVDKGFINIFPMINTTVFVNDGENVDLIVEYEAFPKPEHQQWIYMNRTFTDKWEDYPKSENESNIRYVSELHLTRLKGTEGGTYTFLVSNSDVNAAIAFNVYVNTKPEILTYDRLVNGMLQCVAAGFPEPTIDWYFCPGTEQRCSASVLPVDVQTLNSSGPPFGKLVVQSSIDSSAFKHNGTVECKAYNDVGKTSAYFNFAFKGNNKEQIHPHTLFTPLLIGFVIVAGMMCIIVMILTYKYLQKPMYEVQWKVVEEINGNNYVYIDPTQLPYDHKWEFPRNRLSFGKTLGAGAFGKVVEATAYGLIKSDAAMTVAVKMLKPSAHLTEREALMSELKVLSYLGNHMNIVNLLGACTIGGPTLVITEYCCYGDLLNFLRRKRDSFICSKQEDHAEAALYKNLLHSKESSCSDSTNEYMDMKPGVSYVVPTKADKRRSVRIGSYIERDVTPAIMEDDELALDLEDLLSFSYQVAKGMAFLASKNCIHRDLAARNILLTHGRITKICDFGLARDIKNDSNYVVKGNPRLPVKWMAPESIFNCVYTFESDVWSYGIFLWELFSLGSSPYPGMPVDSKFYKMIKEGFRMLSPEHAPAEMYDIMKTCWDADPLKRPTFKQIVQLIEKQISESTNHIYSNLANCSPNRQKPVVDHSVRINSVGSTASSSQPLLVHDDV
Chain of Cyclin-dependent kinase 18 (Homo sapiens) (Q07002 whole entry): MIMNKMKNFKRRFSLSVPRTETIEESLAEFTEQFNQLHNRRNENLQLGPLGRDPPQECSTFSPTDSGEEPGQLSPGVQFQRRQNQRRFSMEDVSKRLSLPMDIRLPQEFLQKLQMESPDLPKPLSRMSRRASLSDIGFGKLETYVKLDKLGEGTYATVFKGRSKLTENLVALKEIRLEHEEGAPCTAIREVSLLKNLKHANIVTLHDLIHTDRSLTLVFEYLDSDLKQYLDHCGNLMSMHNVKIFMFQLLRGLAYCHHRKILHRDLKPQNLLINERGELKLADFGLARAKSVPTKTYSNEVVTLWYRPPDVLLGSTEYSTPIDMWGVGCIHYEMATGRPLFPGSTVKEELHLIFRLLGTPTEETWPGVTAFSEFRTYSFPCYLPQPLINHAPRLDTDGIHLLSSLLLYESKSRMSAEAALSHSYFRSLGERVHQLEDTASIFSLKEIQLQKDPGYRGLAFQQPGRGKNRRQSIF
Chain of Phosphatidylinositol 4,5-bisphosphate 3-kinase catalytic subunit alpha isoform (Homo sapiens), P42336 [H1047L] (P42336 whole entry H1047L, canonical isoform): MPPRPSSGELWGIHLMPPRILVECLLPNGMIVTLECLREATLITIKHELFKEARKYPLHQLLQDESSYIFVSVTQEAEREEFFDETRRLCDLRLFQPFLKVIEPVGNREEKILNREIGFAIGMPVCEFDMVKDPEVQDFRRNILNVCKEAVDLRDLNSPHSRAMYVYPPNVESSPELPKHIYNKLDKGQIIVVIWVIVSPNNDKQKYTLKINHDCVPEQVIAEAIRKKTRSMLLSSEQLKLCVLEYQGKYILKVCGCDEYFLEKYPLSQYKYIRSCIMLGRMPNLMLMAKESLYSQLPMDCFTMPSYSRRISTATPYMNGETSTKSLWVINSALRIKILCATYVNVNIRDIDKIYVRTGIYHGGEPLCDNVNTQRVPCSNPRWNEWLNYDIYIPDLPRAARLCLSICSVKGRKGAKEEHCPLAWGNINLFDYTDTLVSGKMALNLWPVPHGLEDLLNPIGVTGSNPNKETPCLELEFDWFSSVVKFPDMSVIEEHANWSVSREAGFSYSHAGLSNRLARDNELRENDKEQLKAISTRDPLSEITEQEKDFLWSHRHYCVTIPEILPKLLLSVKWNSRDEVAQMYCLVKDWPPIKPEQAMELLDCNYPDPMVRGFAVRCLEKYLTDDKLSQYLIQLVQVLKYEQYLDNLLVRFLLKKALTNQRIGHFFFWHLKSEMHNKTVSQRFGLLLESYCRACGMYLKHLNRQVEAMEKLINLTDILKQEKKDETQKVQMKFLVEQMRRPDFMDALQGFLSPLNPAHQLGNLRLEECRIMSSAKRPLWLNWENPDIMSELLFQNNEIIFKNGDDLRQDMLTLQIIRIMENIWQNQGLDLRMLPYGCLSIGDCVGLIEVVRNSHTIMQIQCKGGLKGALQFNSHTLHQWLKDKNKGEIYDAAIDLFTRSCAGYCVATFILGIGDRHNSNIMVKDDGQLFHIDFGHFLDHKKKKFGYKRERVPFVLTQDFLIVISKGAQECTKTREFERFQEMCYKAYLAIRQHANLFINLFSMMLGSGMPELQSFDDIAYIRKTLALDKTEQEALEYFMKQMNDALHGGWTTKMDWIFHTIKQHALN
Chain of Mitogen-activated protein kinase kinase kinase 20 (Homo sapiens) (Q9NYL2 2-800 limits assumed): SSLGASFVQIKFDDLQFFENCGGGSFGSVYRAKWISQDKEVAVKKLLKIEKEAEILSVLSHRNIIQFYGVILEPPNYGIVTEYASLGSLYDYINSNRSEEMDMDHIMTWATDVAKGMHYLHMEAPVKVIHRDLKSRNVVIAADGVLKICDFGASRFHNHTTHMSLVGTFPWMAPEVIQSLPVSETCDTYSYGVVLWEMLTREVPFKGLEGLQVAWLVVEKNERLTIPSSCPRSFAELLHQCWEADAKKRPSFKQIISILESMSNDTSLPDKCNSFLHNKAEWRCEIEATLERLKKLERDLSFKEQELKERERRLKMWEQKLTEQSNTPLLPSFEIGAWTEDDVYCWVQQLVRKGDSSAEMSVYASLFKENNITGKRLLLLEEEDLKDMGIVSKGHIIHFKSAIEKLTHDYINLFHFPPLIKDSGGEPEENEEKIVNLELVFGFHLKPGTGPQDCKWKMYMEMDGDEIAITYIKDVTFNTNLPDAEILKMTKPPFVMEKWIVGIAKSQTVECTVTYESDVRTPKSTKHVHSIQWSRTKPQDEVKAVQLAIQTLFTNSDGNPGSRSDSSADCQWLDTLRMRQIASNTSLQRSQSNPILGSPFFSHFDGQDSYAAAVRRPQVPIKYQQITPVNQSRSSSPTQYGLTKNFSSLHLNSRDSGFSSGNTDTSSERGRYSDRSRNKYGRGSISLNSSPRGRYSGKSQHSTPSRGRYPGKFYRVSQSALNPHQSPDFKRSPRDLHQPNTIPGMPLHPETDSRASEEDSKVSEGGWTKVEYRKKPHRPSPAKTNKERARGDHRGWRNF
Chain of Phosphatidylinositol 4,5-bisphosphate 3-kinase catalytic subunit alpha isoform (Homo sapiens), P42336 [E542K] (P42336 whole entry E542K, canonical isoform): as the sequence (P42336 whole entry H1047L, canonical isoform) above, with E542K, L1047H counted along it

Molecule `CSc1cccnc1N1CCN(Cc2nc3ccccc3[nH]2)CC1` [A-769] has a residual activity [1] of 100%, a residual activity [2] of 100% and a residual activity [3] of 90%. It also gave a residual activity [4] of 94%, a residual activity [5] of 75% and a residual activity [6] of 100%. For the same molecule, the residual activity [7] was 84%, the residual activity [8] was 67% and the residual activity [9] was 100%. The residual activity [10] was 100%, the residual activity [11] was 100% and the residual activity [12] was 79%. The residual activity [13] was 100%, the residual activity [14] was 88% and the residual activity [15] was 82%. For the same molecule, the residual activity [16] was 100%, the residual activity [17] was 77% and the residual activity [18] was 97%. For the same molecule, the residual activity [19] was 100%, the residual activity [20] was 73% and the residual activity [21] was 100%. For the same molecule, the residual activity [22] was 100%, the residual activity [23] was 87% and the residual activity [24] was 100%. It also gave a residual activity [25] of 87%, a residual activity [26] of 94% and a residual activity [27] of 100%. For the same molecule, the residual activity [28] was 99%, the residual activity [29] was 97% and the residual activity [30] was 100%. For the same molecule, the residual activity [31] was 100%, the residual activity [32] was 85% and the residual activity [33] was 100%. The residual activity [34] was 100%, the residual activity [35] was 83% and the residual activity [36] was 85%. The residual activity [37] was 100%, the residual activity [38] was 100% and the residual activity [39] was 82%. The residual activity [40] was 88%, the residual activity [41] was 100% and the residual activity [42] was 84%. It also gave a residual activity [43] of 100%, a residual activity [44] of 100% and a residual activity [45] of 85%.

`c1ccc(N2CCN(Cc3nc4ccccc4[nH]3)CC2)nc1` [ABT-724] was tested, and the residual activity [1] was 98%, the residual activity [2] was 100% and the residual activity [3] was 100%. The residual activity [4] was 100%, the residual activity [5] was 100% and the residual activity [6] was 100%. It also gave a residual activity [7] of 100%, a residual activity [8] of 18% and a residual activity [9] of 94%. For the same molecule, the residual activity [10] was 92%, the residual activity [11] was 94% and the residual activity [12] was 100%. The residual activity [13] was 65%, the residual activity [14] was 100% and the residual activity [15] was 100%. For the same molecule, the residual activity [16] was 100%, the residual activity [17] was 100% and the residual activity [18] was 84%. It also gave a residual activity [19] of 100%, a residual activity [20] of 100% and a residual activity [21] of 93%. For the same molecule, the residual activity [22] was 100%, the residual activity [23] was 100% and the residual activity [24] was 100%. The residual activity [25] was 100%, the residual activity [26] was 100% and the residual activity [27] was 100%. For the same molecule, the residual activity [28] was 100%, the residual activity [29] was 100% and the residual activity [30] was 98%. For the same molecule, the residual activity [31] was 100%, the residual activity [32] was 100% and the residual activity [33] was 100%. It also gave a residual activity [34] of 88%, a residual activity [35] of 100% and a residual activity [36] of 99%. For the same molecule, the residual activity [37] was 95%, the residual activity [38] was 100% and the residual activity [39] was 100%. The residual activity [40] was 100%, the residual activity [41] was 94% and the residual activity [42] was 88%. The residual activity [43] was 100%, the residual activity [44] was 100% and the residual activity [45] was 100%.
